According to US20110269811A1, “INHIBITORS OF SEMICARBAZIDE-SENSITIVE AMINE OXIDASE (SSAO) AND VAP-1 MEDIATED ADHESION USEFUL FOR TREATMENT AND PREVENTION OF DISEASES” (priority 2006, published 2011):
pIC50: −log10 of the molar value. Structures can show the parent of a compound that is named as a salt.

Key:
[1] = target: T1, Human SSAO (Homo sapiens, UniProt Q16853); assay: In vitro inhibition of SSAO activity, human umbilical cord homogenate, 14C-benzylamine; assay type: biochemical; set-up: Human SSAO, percent at given concentration: unit of the concentration uncertain; settings: for pIC50: human umbilical cord homogenate, read-out: Human SSAO IC50
T1 construct: rat lung or human umbilical cord homogenates were prepared by chopping the freshly removed tissue; from tissue; host or cells: human umbilical cord homogenate (25,000 g supernatant)
T1 sequence (Q16853 1-763): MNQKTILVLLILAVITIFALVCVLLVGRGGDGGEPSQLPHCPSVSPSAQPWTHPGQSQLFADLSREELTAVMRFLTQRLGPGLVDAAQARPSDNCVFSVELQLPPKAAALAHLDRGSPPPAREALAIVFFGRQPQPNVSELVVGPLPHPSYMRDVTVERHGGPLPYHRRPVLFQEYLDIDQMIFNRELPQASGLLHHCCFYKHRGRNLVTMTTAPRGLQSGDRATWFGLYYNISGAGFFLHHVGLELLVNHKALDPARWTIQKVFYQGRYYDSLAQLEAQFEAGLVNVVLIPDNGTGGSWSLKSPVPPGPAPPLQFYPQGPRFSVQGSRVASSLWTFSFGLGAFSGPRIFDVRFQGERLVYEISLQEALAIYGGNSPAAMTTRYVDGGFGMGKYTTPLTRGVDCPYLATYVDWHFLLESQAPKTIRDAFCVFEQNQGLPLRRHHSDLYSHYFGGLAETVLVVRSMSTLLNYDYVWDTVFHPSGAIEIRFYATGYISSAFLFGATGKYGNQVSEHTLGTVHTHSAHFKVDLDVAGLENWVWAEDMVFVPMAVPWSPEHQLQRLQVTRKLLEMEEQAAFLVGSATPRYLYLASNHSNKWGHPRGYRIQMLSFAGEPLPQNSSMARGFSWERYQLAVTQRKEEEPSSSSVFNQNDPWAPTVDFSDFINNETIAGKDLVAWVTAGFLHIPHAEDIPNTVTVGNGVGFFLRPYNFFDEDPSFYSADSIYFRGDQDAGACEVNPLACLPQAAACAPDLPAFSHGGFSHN
Method: SSAO activity was measured as described (Lizcano J M. Et al. (1998) Biochem J. 331:69). Briefly, rat lung or human umbilical cord homogenates were prepared by chopping the freshly removed tissue into small pieces and washing them thoroughly in PBS. The tissue was then homogenized 1:10 (w/v) for lung or 1:5 (w/v) for umbilical cord, in 10 mM potassium phosphate buffer (pH 7.8). Homogenates were then centrifuged at 1000 g at 4° C. for 10 min (lung) or 25,000 g for 30 min (umbilical cord); the supernatants were kept frozen until ready to use. Lung or umbilical cord homogenate was preincubated with clorgyline and pargyline at 1 μM to inhibit MAO-A and -B activity, respectively, and SSAO inhibitors were generally present at 1 nM-10 μM. The reaction was initiated by addition of 20 μM ^14C— benzylamine as substrate. The reaction was carried out at 37° C. in a final volume of 400 μL of 100 mM potassium phosphate buffer (pH 7.2) and stopped with 100 μl of 2M citric acid. Radioactively labeled products were extracted into toluene/ethyl acetate (1:1, v/v) containing 0.6% (w/v) 2,5-diphenyloxazole (PPO) before liquid scintillation counting.

Row | Structure (SMILES) | melting point | also measured
1 | NC/C(=C\F)CCc1cccc(F)c1.O=C(O)C(F)(F)F | 47 to 48 °C | –
2 | NC/C(=C/F)CCc1cccc(F)c1.O=C(O)C(F)(F)F | 72 to 73 °C | –
3 | NC/C(=C/F)CCc1cc(F)cc(C(F)(F)F)c1.O=C(O)C(F)(F)F | 58 to 59 °C | –
4 | COc1ccc(C/C(=C\F)CN)cc1OC.Cl | 204 to 205 °C | –
5 | COc1ccc(C/C(=C/F)CN)cc1OC.Cl | 220 to 221 °C | –
6 | COc1cccc(CC/C=C(/F)CN)c1.Cl | 112 to 113 °C | –
7 | NCC(=CF)Cc1cccc(O)c1 (as salt: citrate) | 145 to 146 °C | –
8 | CSc1cccc(C/C(=C/F)CN)c1 (as salt: hydrochloride) | 145 to 146 °C | –
9 | Cc1ccc(C/C(=C/F)CN)cc1 (as salt: hydrochloride) | 150 to 151 °C | –
10 | NC/C(=C\F)Cc1ccc(-c2ccccc2)cc1 (as salt: hydrochloride) | 219 to 220 °C | –
11 | NC/C(=C\F)Cc1ccc(F)cc1 (as salt: hydrochloride) | 139 to 140 °C | –
12 | NC/C(=C\F)Cc1cccc(C(F)(F)F)c1 (as salt: hydrochloride) | 161 to 162 °C | –
13 | Cc1ccc(C/C(=C/F)CN)cc1F (as salt: hydrochloride) | 160 to 161 °C | –
14 | Cc1cc(C/C(=C/F)CN)ccc1F (as salt: hydrochloride) | 158 to 159 °C | –
15 | NC/C(=C\F)Cc1cc(F)cc(Cl)c1 (as salt: hydrochloride) | 158 to 159 °C | –
16 | NC/C(=C\F)Cc1ccc(F)cc1F (as salt: hydrochloride) | 130 to 131 °C | –
17 | NC/C(=C\F)Cc1cc(Cl)cc(Cl)c1 (as salt: hydrochloride) | 184 to 185 °C | –
18 | NC/C(=C\F)Cc1ccc(F)c(F)c1 (as salt: hydrochloride) | 141 to 142 °C | –
19 | NC/C(=C\F)Cc1cccc(Cl)c1 (as salt: hydrochloride) | 145 to 146 °C | –
20 | NC/C(=C/Cl)CCc1ccccc1 (as salt: hydrochloride) | 97 to 98 °C | –
21 | NC/C(=C/Cl)CCc1ccc(C(F)(F)F)cc1 (as salt: hydrochloride) | 89 to 90 °C | –

Row | Structure (SMILES) | melting point | also measured
22 | COc1cc(C/C(=C/F)CN)cc(OC)c1 (as salt: hydrochloride) | 194 to 195 °C | –
23 | COCc1cccc(C/C=C(/F)CN)c1 (as salt: hydrochloride) | 165 to 166 °C | –
24 | CCCCOc1ccc(CC/C(=C/Cl)CN)cc1 (as salt: hydrochloride) [Compound I-36, (Z)-3-Chloro-2-(4-n-butoxyphenylethyl)allylamine hydrochloride] | 133 to 134 °C | –
25 | CS(=O)(=O)c1ccc(C/C(=C/F)CN)cc1 (as salt: trifluoroacetate) | 49 to 50 °C | –
26 | NC/C(=C\Cl)CCc1ccc(F)cc1 (as salt: trifluoroacetate) | 69 to 70 °C | –
27 | NC/C(=C\Cl)CCc1ccc(Cl)cc1 (as salt: trifluoroacetate) | 89 to 90 °C | –
28 | Cc1ccc(CC/C(=C/Cl)CN)cc1.Cl [Compound I-39-Z, (Z)-3-Chloro-2-(4-methylphenylethyl)allylamine hydrochloride] | 135 °C (dec.) | pIC50 [1]: 5.92
29 | NC/C(=C/Cl)CCc1ccc(F)cc1.O=C(O)C(F)(F)F [Compound I-42-Z, (E)-3-Chloro-2-(4-fluorophenylethyl)allylamine trifluoroacetate] | 52 to 53 °C | Human SSAO, percent at given concentration ([1]; @8 (unit uncertain)): 73%@8 mM
30 | NC/C(=C/Cl)CCc1ccc(Cl)cc1.O=C(O)C(F)(F)F [Compound I-43-Z, (E)-3-Chloro-2-(4-chlorophenylethyl)allylamine trifluoroacetate] | 68 to 70 °C | pIC50 [1]: 5.85
31 | Cc1cccc(CC/C(=C\Cl)CN)c1.Cl [Compound I-48-E, (E)-3-Chloro-2-(3-methylphenylethyl)allylamine hydrochloride] | 95 to 97 °C | pIC50 [1]: 5.00
32 | COc1cccc(CC/C(=C\Cl)CN)c1.Cl [Compound I-49-E, (E)-3-Chloro-2-(3-methoxyphenylethyl)allylamine hydrochloride] | 85 to 87 °C | pIC50 [1]: 5.26
33 | Cc1ccc(CC/C(=C\Cl)CN)cc1.Cl [Compound I-50-E, (E)-3-Chloro-2-(4-methylphenylethyl)allylamine hydrochloride] | 124 to 125 °C | pIC50 [1]: 6.00
34 | Cl.NC/C(=C/Cl)CCc1cc(F)cc(C(F)(F)F)c1 [Compound I-51-E, (E)-3-Chloro-2-(3-fluoro-5-trifluoromethylphenylethyl)allylamine hydrochloride] | 96 to 97 °C | Human SSAO, percent at given concentration ([1]; @40 (unit uncertain)): 33%@40 mM
35 | Cl.NC/C(F)=C\Cc1cc(C(F)(F)F)cc(C(F)(F)F)c1 [II-12-E, (E)-2-Fluoro-4-(3,5-ditrifluoromethylphenyl)-2-butenylamine hydrochloride] | 197 to 198 °C | Human SSAO, percent at given concentration ([1]; @7 (unit uncertain)): 55%@7 mM
36 | COc1ccccc1C/C=C(/F)CN.Cl [II-17-E, (E)-2-Fluoro-4-(2-methoxyphenyl)-2-butenylamine hydrochloride] | 133 to 134 °C | pIC50 [1]: 5.35
37 | COc1cccc(C(C)/C=C(/F)CN)c1.Cl (centres unmarked) [II-18-E] | 133 to 134 °C | –
38 | NCC(=O)CCc1ccc(F)cc1 [IV-1, 1-amino-4-(4-fluorophenyl)butan-2-one] | – | Human SSAO, percent at given concentration ([1]; @8 (unit uncertain)): 45%@8 mM
39 | COc1ccc(CCC(=O)CN)cc1 [IV-3, 1-amino-4-(4-methoxyphenyl)butan-2-one] | – | pIC50 [1]: 5.52
40 | COc1cccc(CCC(=O)CN)c1 [IV-8, 1-amino-4-(3-methoxyphenyl)butan-2-one] | – | pIC50 [1]: 5.43
41 | NCC(=O)CCc1cc(F)cc(C(F)(F)F)c1 [IV-10, 1-amino-4-(3-fluoro-5-(trifluoromethyl)phenyl)butan-2-one] | – | pIC50 [1]: 5.82

Second part, led by results:

Row | melting point | Structure (SMILES) | also measured
42 | 118 to 119 °C | Cc1cccc(C/C(=C/F)CN)c1 (as salt: hydrochloride) [Compound I-13, (Z)-3-Fluoro-2-(3-methylbenzyl)allylamine hydrochloride] | –
43 | 170 °C (dec.) | COc1ccc(C/C(=C/F)CN)cc1F (as salt: hydrochloride) [Compound I-21, (Z)-3-Fluoro-2-(3-fluoro-4-methoxybenzyl)allylamine hydrochloride] | –
44 | 163 to 164 °C | NC/C(=C\F)Cc1ccc(F)c(Cl)c1 (as salt: hydrochloride) [Compound I-23, (Z)-3-Fluoro-2-(3-chloro-4-fluorobenzyl)allylamine hydrochloride] | –
45 | 105 to 106 °C | NC/C(=C\F)Cc1cc(F)ccc1F (as salt: hydrochloride) [Compound I-24, (Z)-3-Fluoro-2-(2,5-difluorobenzyl)allylamine hydrochloride] | –
46 | 123 to 124 °C | COc1ccc(CC/C(=C/Cl)CN)cc1 (as salt: hydrochloride) [Compound I-33, (Z)-3-Chloro-2-(4-methoxyphenylethyl)allylamine hydrochloride] | –
47 | 160 to 162 °C | CCOc1ccc(CC/C(=C/Cl)CN)cc1 (as salt: hydrochloride) [Compound I-34, (Z)-3-Chloro-2-(4-ethoxyphenylethyl)allylamine hydrochloride] | –
48 | 102 to 103 °C | Cc1cccc(CC/C(=C/Cl)CN)c1 (as salt: hydrochloride) [Compound I-37, (Z)-3-Chloro-2-(3-methylphenylethyl)allylamine hydrochloride] | –
49 | 139 to 140 °C | COc1cccc(CC/C(=C/Cl)CN)c1 (as salt: hydrochloride) [Compound I-38, (Z)-3-Chloro-2-(3-methoxyphenylethyl)allylamine hydrochloride] | –
50 | 145 to 147 °C | NC/C(F)=C\Cc1cccc(C(F)(F)F)c1 (as salt: hydrochloride) [II-2, (E)-2-Fluoro-4-(3-trifluoromethylphenyl)-2-butenylamine hydrochloride] | –
